Drawing on PubChem BioAssay (NCI), this text covers TGI and GI50 for 42 compounds.

Holding throughout (assay): NCI anticancer screen, dose series, 48 h
Assay [1] has as its system KM20L2 colon.
The test system of assay [2] is DMS 114 small cell lung.
For assay [3], the system named is HOP-18 NSCLC.
In assay [4] the test system is DMS 273 small cell lung.
Assay [5] relates to SNB-78 CNS.
In assay [6] the test system is MDA-N.
The test system of assay [7] is RXF-631 renal.

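The compound was tested at five concentrations on cells cultured in 96-well plates, with a 48-hour exposure period. Abbreviation: GI50, concentration required for 50% inhibition of growth. TGI: total growth inhibition.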

As to `COc1ccc(-c2cc(=O)c3ccc(O)cc3o2)c(OC)c1OC`, the TGI in assay [1] and in assay [2] was more than 100 µM each time.
As to `CSc1ccc(/C=C2\CN(C)C/C(=C\c3ccc(SC)cc3)C2=O)cc1`, the TGI in assay [1], in assay [3], in assay [4], in assay [5] and in assay [2] was more than 100 µM throughout.
For `c1cc2c(cc1NC1=NCCO1)CCC2`, the TGI in assay [6] was more than 10 µM.
Regarding `CC1(C)OC(=O)C(=Cc2ccc(O)cc2)C(=O)O1`, the TGI in assay [1], in assay [4], in assay [5] and in assay [2] was more than 100 µM throughout.
On to `O=[S@@]1Nc2ccc(Br)cc2S1`, for which the TGI in assay [1], in assay [4], in assay [5] and in assay [7] was more than 100 µM each time.
Regarding `CSCCCN(CCCSC)CCCSC`, the TGI in assay [6] was more than 100 µM.
Consider `COc1cc2cnc3c4cc(OC(C)C)c(OC)cc4ccc3c2cc1OC`, for which the TGI in assay [1], in assay [3] and in assay [2] was more than 100 µM in each case.
As for `CC(=O)C(CN(C(C)C)C(C)C)C(c1ccccc1)c1c(O)c2ccccc2oc1=O` (stereo unspecified), the TGI in assay [1], in assay [3], in assay [4], in assay [5], in assay [7] and in assay [2] was more than 100 µM each time.
Consider `O=C(N/C(=C\c1cc(Cl)ccc1Cl)c1nc2[nH]c(=S)[nH]c(=O)c2[nH]1)c1ccccc1`, for which the TGI in assay [1] was more than 100 µM; in assay [5] it was more than 100 µM; in assay [7], more than 82.7 µM; in assay [2] it was more than 82.5 µM.
Take `CCOC(=O)C(Sc1ccccc1)c1c(OC)cc(=O)oc1/C=[N+](/[O-])c1ccc(N(C)C)cc1` (stereo unspecified): the TGI in assay [1] was 89.2 µM; in assay [3], 61.6 µM; in assay [4] it was 29 µM; in assay [5], 78.9 µM; in assay [2], 42.9 µM.
Take `CC1=C(C(=O)Nc2ccccc2C)C(c2ccco2)C(C(=O)Nc2ccccc2C)=C(C)N1C`: the TGI in assay [3], in assay [5], in assay [7] and in assay [2] was more than 100 µM each time.
For `CC(=O)NC1=C(NCC(C)(C)C)C(=O)c2ccccc2C1=O`, the TGI in assay [1], in assay [4] and in assay [5] was more than 100 µM in each case.
With `COc1ccc(-n2/c(=N/C(=S)N(C)C)ss/c2=N\C(=S)N(C)C)cc1`, the TGI in assay [1], in assay [4], in assay [5] and in assay [2] was more than 100 µM in each case.
With `CN(CC(=O)O)S(=O)(=O)c1ccc2ccccc2c1`, the TGI in assay [1], in assay [3], in assay [4] and in assay [7] was more than 100 µM throughout.
In the case of `Nc1ccc(C(=O)N/C(=C\c2ccc3c(c2)OCO3)c2nc3[nH]c(=S)[nH]c(=O)c3[nH]2)cc1`, the TGI in assay [1], in assay [5] and in assay [7] was more than 100 µM throughout.
Take `CC(C)=CCCc1c(C)ccc2c1C(=O)C(=O)C(C(C)C)=C2`: the TGI was more than 22 µM in assay [1], 8.12 µM in assay [3], 7.47 µM in assay [4] and 9.36 µM in assay [2].
`O=C1c2ccccc2C(=O)c2sc(Nc3cccc(Cl)c3)nc21`: the TGI came to 20.2 µM in assay [1], 3.48 µM in assay [3], 3.59 µM in assay [4] and 2.97 µM in assay [2].
Turning to `COc1cccc(NC(=O)CC(=O)n2nc(C)c(N=Nc3ccccc3)c2C)c1`, the TGI in assay [3] was 71.4 µM; in assay [4], more than 100 µM; in assay [5], more than 100 µM; in assay [7] it was more than 100 µM; in assay [2], more than 100 µM.
As to `O=c1cc(-c2cccc(O)c2)[nH]c2cc3c(cc12)OCO3`, the TGI was more than 100 µM in assay [3]; 1.07 µM in assay [6]; 4.23 µM in assay [4]; 54.2 µM in assay [5]; 5.68 µM in assay [2].
With `O=C(/C=C/c1ccccc1Cl)c1ccc(Cl)c(Cl)c1`, the TGI in assay [1] was found to be 31.1 µM; in assay [3], 32 µM; in assay [4] it was 37.5 µM; in assay [5] it was 32.7 µM.
As to `Cc1nc2c(nc1C)C(=O)c1ccccc1C2=O`, the TGI in assay [1] was 36.3 µM; in assay [3], 9.53 µM; in assay [6], 0.562 µM; in assay [4] it was 15.3 µM; in assay [5], more than 94.2 µM; in assay [7], 46.1 µM. Moreover, in assay [2], the TGI was more than 46 µM.
`COc1ccc2nc3cc(Cl)ccc3c(Sc3ccccc3[N+](=O)[O-])c2c1`: the TGI in assay [1], in assay [3], in assay [4], in assay [5], in assay [7] and in assay [2] was more than 100 µM in each case.
Regarding `CC(=O)OC1COC(n2c(=S)n(-c3ccc(C)cc3)c(=O)c3ccccc32)C(OC(C)=O)C1OC(C)=O` (stereo unspecified), the TGI in assay [1], in assay [3], in assay [4], in assay [5], in assay [7] and in assay [2] was more than 100 µM in each case.
For `CCOC(=O)COc1cccc2c1C(=O)CCO2`, the TGI in assay [1], in assay [4], in assay [5], in assay [7] and in assay [2] was more than 100 µM each time.
`Cc1ccc(-c2nnc(-c3ccc4ccccc4c3)o2)cc1` yielded a TGI in assay [6] of more than 100 µM.
Take `COC(=O)[C@@]12C3=NO[C@]1(C(=O)OC)C(O[Si](C)(C)C(C)(C)C)[C@H]1OC(C)(C)O[C@H]1[C@@H]2C(OCc1ccccc1)CC3` (stereo partly specified): the TGI in assay [1], in assay [3], in assay [4] and in assay [2] was more than 100 µM each time.
`COc1ccc(/C=C\c2cc(OC)c3c(c2)OCO3)c(O)c1O`: the TGI is 61.5 µM in assay [1]; 46.4 µM in assay [3]; more than 100 µM in assay [4]; 16 µM in assay [5]; 8.81 µM in assay [2].
In turn, `O=C(O)c1cc(C(=O)O)cc(N2C(=O)c3ccccc3C2=O)c1` registered a TGI in assay [6] of more than 100 µM.
Take `O=C(O)C(Cc1ccccc1)N1C(=O)N/C(=C\c2ccc(F)cc2)C1=O` (stereo unspecified): the TGI in assay [3], in assay [4] and in assay [5] was more than 100 µM each time.
For the compound `CC(=O)OC(C)C(=O)C1c2cccc(O)c2C(=O)c2c(O)cc(C)cc21` (stereo unspecified), the TGI in assay [1] was 2.72 µM; in assay [4], 1.85 µM; in assay [2] it was 0.497 µM.
As for `COc1ccc(NC(=O)c2cc(OC)cc(OC)c2)cc1`, the TGI in assay [1] is 32 µM; in assay [3] it was more than 100 µM; in assay [4] it was more than 100 µM; in assay [5] it was 83.3 µM; in assay [2], more than 100 µM.
With `O=C1C2=C(SCCS2)C(=O)c2ccccc21`, the TGI in assay [1] came out at 3.52 µM; in assay [4], 3.31 µM; in assay [7], 3.28 µM; in assay [2], 2.09 µM.
Take `O=C1c2cccnc2-c2nc(-c3ccccc3[N+](=O)[O-])cc3c2c1nc1ccccc13`: in assay [6], the GI50 is 12.2 µM and the TGI amounted to 26.1 µM.
Consider `N#CC(C#N)=c1ccc(=C2NCC3CCCN23)cc1` (stereo unspecified), for which the TGI in assay [1], in assay [3], in assay [4], in assay [5] and in assay [2] was more than 100 µM in each case.
With `COc1ccc2c(c1)C1(C=N2)CCN(C(C)=O)CC1`, the TGI in assay [1], in assay [3], in assay [4], in assay [5], in assay [7] and in assay [2] was more than 100 µM throughout.
Take `CCN(CC)CC(C(=O)Nc1c(C)cccc1C)/C(C)=N\NC(=O)C[N+](C)(C)C` (stereo unspecified): the TGI in assay [1], in assay [4], in assay [5] and in assay [2] was more than 100 µM in each case.
Consider `CCNC1C2(CCCCC2)NC(=O)C12CCCCC2` (stereo unspecified), for which the TGI in assay [1], in assay [4], in assay [5] and in assay [2] was more than 100 µM in each case.
With `O=C(CSC(=S)N1CCCCC1)Nc1nc2c(s1)CCCC2`, the TGI in assay [1], in assay [4], in assay [5] and in assay [2] was more than 100 µM each time.
As for `CCOC(=O)C1=C(C)CC2C(=O)OC(=O)C2C1(C)C` (stereo unspecified), the TGI in assay [3] and in assay [2] was more than 100 µM throughout.
Turning to `NS(=O)(=O)c1ccccc1C(=O)N/N=C(\c1nc2ccc([N+](=O)[O-])cc2[nH]c1=O)C(O)c1ccc([N+](=O)[O-])cc1` (stereo unspecified), the TGI in assay [1] and in assay [3] was more than 100 µM throughout.
In the case of `O[C@H]1[C@H]2c3cc4c(cc3CN3CCC(=C[C@@H]1O)[C@H]23)OCO4`, the TGI in assay [6] came out at 26.7 µM.
On the same count and under the same terms, to `Cc1cc(=O)[nH]c2cc3oc4ccccc4c3cc12` belongs more than 100 µM.
